The results in this text go back to PubChem BioAssay (NCI).

Some test systems named below: COLO 205 colon; HCC-2998 colon; HOP-92 NSCLC; HS 578T breast; NCI-H226 lung; NCI-H23 lung; NCI-H460 lung; OVCAR-3 ovarian; SN12C renal; UACC-62 melanoma.
Holding throughout (experiment): growth of human tumour cells (NCI), 48 h

Several values for one entry are separate records, joined by “and”; a condition that tells them apart may be missing. Equal values may be shown once.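 Interpolation was linear, between the two tested concentrations surrounding the appropriate level; five concentrations were tested over 48 hours in 96-well plates. GI50 is the concentration that inhibits growth by half. TGI denotes the concentration required for complete inhibition of growth.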

For the compound `C=C1C(=O)O[C@H]2[C@H]1CC/C(COC(=O)/C=C/c1cccnc1)=C\CC[C@@]1(C)O[C@@H]21`, the GI50 in the assay with COLO 205 colon was 1.06 µM; in the assay with HCC-2998 colon it was 5.02 µM; with HOP-92 NSCLC, 0.853 µM; in the assay on HS 578T breast it was 4.22 µM; in the assay with NCI-H226 lung it was 2.68 µM; in the assay with NCI-H23 lung it was 3.42 µM. Besides, the GI50 is 5.12 µM in the assay on NCI-H460 lung, 0.494 µM in the assay on OVCAR-3 ovarian, 2.38 µM in the assay on SN12C renal and 1.89 µM with UACC-62 melanoma. The TGI amounted to 2.82 µM with COLO 205 colon; 17.1 µM with HCC-2998 colon; 2.74 µM in the assay with HOP-92 NSCLC; 36 µM in the assay on HS 578T breast; 9.98 µM in the assay with NCI-H226 lung; 15.4 µM with NCI-H23 lung. Moreover, the TGI in the assay with NCI-H460 lung is 20 µM; in the assay on OVCAR-3 ovarian, 1.76 µM; in the assay on SN12C renal, 7.92 µM; in the assay on UACC-62 melanoma, 5 µM.

On to `NCCCn1c2c(c3ccccc3c1=O)C(=O)c1cc3c(cc1-2)OCO3`, for which the GI50 with COLO 205 colon is 0.121 µM; in the assay on HCC-2998 colon, less than 0.01 µM; in the assay on HOP-92 NSCLC, 0.568 µM; with HS 578T breast it was 0.687 µM; in the assay on NCI-H226 lung, 0.514 µM; with NCI-H23 lung, 0.324 µM. Also, the GI50 was 0.0547 µM in the assay with NCI-H460 lung, 0.766 µM in the assay with OVCAR-3 ovarian, 0.276 µM in the assay with SN12C renal and 0.0631 µM in the assay on UACC-62 melanoma. Also, the TGI in the assay on COLO 205 colon was found to be 1.98 µM; with HCC-2998 colon it was 1.11 µM; in the assay on HOP-92 NSCLC it was 15.9 µM; with HS 578T breast it was 4.31 µM; in the assay on NCI-H226 lung, 3.48 µM; in the assay on NCI-H23 lung, 1.38 µM. Moreover, the TGI came to 12.6 µM in the assay with NCI-H460 lung, 3.85 µM in the assay with OVCAR-3 ovarian, 1.05 µM with SN12C renal and 0.62 µM with UACC-62 melanoma.

With `C=C(CN1CCc2ccccc2C1)c1ccc(/C=C/C(=O)Nc2ccccc2N)cc1`, the GI50 in the assay with COLO 205 colon was 32.2 µM; with HCC-2998 colon, 2.04 µM; in the assay on HOP-92 NSCLC it was 8 µM; in the assay on HS 578T breast, 17.1 µM; with NCI-H226 lung it was 2.64 µM; in the assay with NCI-H23 lung, 9.55 µM. For the same compound, the GI50 in the assay on NCI-H460 lung was 3.18 µM; in the assay with OVCAR-3 ovarian, 5.59 µM; in the assay with SN12C renal it was 4.49 µM; in the assay with UACC-62 melanoma, 4.99 µM. Also, the TGI with COLO 205 colon is more than 100 µM; in the assay on HCC-2998 colon, 34.5 µM; in the assay on HOP-92 NSCLC it was 52.8 µM; in the assay with HS 578T breast, more than 100 µM; with NCI-H226 lung, 25.4 µM; in the assay with NCI-H23 lung it was more than 100 µM. For the same compound, the TGI in the assay on NCI-H460 lung was 38.1 µM; with OVCAR-3 ovarian, 51 µM; in the assay with SN12C renal it was 31 µM; with UACC-62 melanoma, 22.8 µM.

With `Cc1c2ncccc2c(C)c2c1[nH]c1ccc(O)cc12`, the GI50 in the assay with COLO 205 colon was 23.1 µM; in the assay with HS 578T breast it was 7.84 µM; in the assay with NCI-H226 lung, 7.8 µM; in the assay on NCI-H23 lung, 11.9 µM and 19 µM; with NCI-H460 lung, 2.78 µM and 1.6 µM; with OVCAR-3 ovarian, 4.01 µM. The GI50 is 5.99 µM and 5.39 µM with SN12C renal; 7.92 µM in the assay on UACC-62 melanoma. In addition, the TGI in the assay with COLO 205 colon is 24.3 µM and 111 µM; with HCC-2998 colon, 17.9 µM and 12.3 µM; in the assay on HOP-92 NSCLC, 17.3 µM; in the assay with HS 578T breast, 21.2 µM and 84.8 µM; in the assay on NCI-H226 lung, 22.2 µM and 17.6 µM; in the assay with NCI-H460 lung, 12.8 µM and 7.17 µM. Moreover, the TGI in the assay on OVCAR-3 ovarian was 20 µM; with SN12C renal, 14.2 µM and 42.5 µM; in the assay on UACC-62 melanoma it was 27.1 µM and 21.1 µM.

Turning to `COc1c(O)cc2oc3cc(O)c(CC=C(C)C)c(O)c3c(=O)c2c1C/C=C(\C)CCC=C(C)C`, the GI50 is 6.37 µM with COLO 205 colon; 7.06 µM in the assay on HCC-2998 colon; 6.52 µM in the assay on HOP-92 NSCLC; 7.11 µM in the assay with HS 578T breast; 6.18 µM in the assay on NCI-H226 lung; 6.6 µM in the assay with NCI-H23 lung. Further, the GI50 in the assay on NCI-H460 lung was 5.66 µM; with OVCAR-3 ovarian, 5.31 µM; in the assay with SN12C renal, 5.68 µM; in the assay on UACC-62 melanoma, 5.51 µM. Further, the TGI with COLO 205 colon worked out at 11.4 µM; with HCC-2998 colon, 13.6 µM; in the assay with HOP-92 NSCLC, 11.5 µM; in the assay with HS 578T breast it was 16.7 µM; in the assay with NCI-H226 lung, 11.2 µM; in the assay on NCI-H23 lung, 14.8 µM. Moreover, the TGI with NCI-H460 lung turned out to be 10.2 µM; with OVCAR-3 ovarian it was 9.71 µM; in the assay with SN12C renal, 10.9 µM; in the assay on UACC-62 melanoma it was 11.3 µM.

In the case of `OCc1ccc(N(Cc2ccc(F)cc2)C2CCC2)cc1Cl`, the GI50 in the assay with COLO 205 colon is 3.5 µM; in the assay on HCC-2998 colon, 5.42 µM; with HOP-92 NSCLC, 0.3 µM; in the assay with HS 578T breast, 19 µM; with NCI-H226 lung it was 0.0569 µM; with NCI-H23 lung, 9.41 µM. The GI50 in the assay with NCI-H460 lung was 0.275 µM; with OVCAR-3 ovarian it was 0.403 µM; with SN12C renal it was 11.8 µM; in the assay with UACC-62 melanoma it was 0.124 µM. Further, the TGI in the assay on COLO 205 colon amounted to 11.5 µM; in the assay on HCC-2998 colon it was 22.7 µM; with HOP-92 NSCLC, 6.69 µM; in the assay with HS 578T breast, 45.4 µM; in the assay with NCI-H226 lung it was 0.193 µM; in the assay with NCI-H23 lung, 25.4 µM. Moreover, the TGI with NCI-H460 lung worked out at 10.2 µM; with OVCAR-3 ovarian, 2.05 µM; with SN12C renal, 24.4 µM; in the assay with UACC-62 melanoma, 0.846 µM.

`COc1ccc2c(CN3CCC(CO)CC3)cc3cc4c(cc3c2c1)OCO4`: the GI50 was 0.122 µM in the assay on COLO 205 colon; 0.194 µM with HCC-2998 colon; 0.0911 µM with HOP-92 NSCLC; 0.5 µM in the assay on HS 578T breast; 0.225 µM in the assay with NCI-H226 lung; 0.298 µM with NCI-H23 lung. Further, the GI50 with NCI-H460 lung was 0.143 µM; in the assay with OVCAR-3 ovarian, 0.316 µM; in the assay on SN12C renal it was 0.247 µM; in the assay with UACC-62 melanoma, 0.235 µM. In addition, the TGI came out at 1.07 µM in the assay on COLO 205 colon; 1.41 µM with HCC-2998 colon; 0.633 µM in the assay with HOP-92 NSCLC; 12.4 µM with HS 578T breast; 0.56 µM with NCI-H226 lung; 1.5 µM in the assay with NCI-H23 lung. Besides, the TGI with NCI-H460 lung was 3.21 µM; in the assay on OVCAR-3 ovarian, 3.39 µM; with SN12C renal it was 4.37 µM; in the assay with UACC-62 melanoma, 0.539 µM.
